# Values quoted from earlier work, collected in patent US20140322324A1, “Composition For The Treatment Of Bacterial Infections” (priority 2011, published 2014).
# Test system: Staphylococcus aureus (ATCC #14154 and #14775)
# Details: two strains of Staphylococcus aureus (ATCC #14154 and #14775); for the combination: concentration of each
smiles,measurement,value
CCCCCCCCCCCC(=O)OCC(O)CO (stereo not shown) [monolaurin],bactericidal concentration in culture,mirrored origanum oil
